For one compound, calcium mobilization (agonist) results are on record in PubChem BioAssay AID1213 (NMMLSC, 2008).

This experiment addresses G-protein coupled estrogen receptor 1 (Homo sapiens) (UniProt Q99527). Briefly: GPR30 agonists and antagonists by calcium flux, primary screen, HL-60 cells, Indo-1 fluorescence, 10 µM (AID 1213). The settings on record: Indo-1 calcium mobilization, at 10 µM, hits give high values. A general note: Calcium assays in cells follow changes in intracellular calcium, usually with a dye or a luminescent sensor.

Records with an inconclusive call do not appear. Active and inactive are the calls of the source.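 The calls were made as follows: active = compound giving calcium release at least equal to the estrogen response, or cutting estrogen-driven calcium release by 60% or more; inconclusive = compound glowing brighter than the detergent maximum; inactive = the rest.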

Turning to `COc1cc(C2Nc3c(F)cccc3C3C=CCC32)cc(Br)c1OC` (stereo unspecified), the calcium mobilization (agonist) was 0% (inactive).
